# Reference: PubChem BioAssay (NCI)
#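 Method: 48-hour compound exposure of cells in 96-well plates, five concentrations, linear interpolation of endpoints. At the TGI there is no net growth.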
# Columns and labels:
# Test in all cases: inhibition of tumour cell growth, NCI panel, 48 h
# UO-31 renal = system: UO-31 renal
# HCC-2998 colon = system: HCC-2998 colon
# MDA-N = system: MDA-N
# RXF 393 renal = system: RXF 393 renal
# NCI-H522 lung = system: NCI-H522 lung
# U251 CNS = system: U251 CNS
# MOLT-4 leukemia = system: MOLT-4 leukemia
# SK-OV-3 ovarian = system: SK-OV-3 ovarian
# SR leukemia = system: SR leukemia
# A498 renal = system: A498 renal
# MCF7 breast = system: MCF7 breast
# NCI-H460 lung = system: NCI-H460 lung
# SN12C renal = system: SN12C renal
# HS 578T breast = system: HS 578T breast
# A549 NSCLC = system: A549 NSCLC
# HCT-116 colon = system: HCT-116 colon
# UACC-257 melanoma = system: UACC-257 melanoma
# OVCAR-8 ovarian = system: OVCAR-8 ovarian
# NCI-H23 lung = system: NCI-H23 lung
# KM12 colon = system: KM12 colon
# TK-10 renal = system: TK-10 renal
# ACHN renal = system: ACHN renal
# LOX IMVI melanoma = system: LOX IMVI melanoma
# T-47D breast = system: T-47D breast
# SK-MEL-5 melanoma = system: SK-MEL-5 melanoma
# SF-295 CNS = system: SF-295 CNS
# CCRF-CEM leukemia = system: CCRF-CEM leukemia
# SNB-19 CNS = system: SNB-19 CNS
# PC-3 prostate = system: PC-3 prostate
# MDA-MB-435 = system: MDA-MB-435
# OVCAR-4 ovarian = system: OVCAR-4 ovarian
# HCT-15 colon = system: HCT-15 colon
# HT29 colon = system: HT29 colon
# DU-145 prostate = system: DU-145 prostate
# NCI/ADR-RES ovarian = system: NCI/ADR-RES ovarian
# SNB-75 CNS = system: SNB-75 CNS
# SF-268 CNS = system: SF-268 CNS
# SK-MEL-28 melanoma = system: SK-MEL-28 melanoma
# HOP-92 NSCLC = system: HOP-92 NSCLC
# MDA-MB-231 breast = system: MDA-MB-231 breast
# NCI-H226 lung = system: NCI-H226 lung
# OVCAR-3 ovarian = system: OVCAR-3 ovarian
# COLO 205 colon = system: COLO 205 colon
# SW-620 colon = system: SW-620 colon
# MALME-3M melanoma = system: MALME-3M melanoma
# 786-0 renal = system: 786-0 renal
# SF-539 CNS = system: SF-539 CNS
# OVCAR-5 ovarian = system: OVCAR-5 ovarian
# HOP-62 NSCLC = system: HOP-62 NSCLC
# EKVX NSCLC = system: EKVX NSCLC
# M14 melanoma = system: M14 melanoma
# SK-MEL-2 melanoma = system: SK-MEL-2 melanoma
# UACC-62 melanoma = system: UACC-62 melanoma
# HL-60(TB) leukemia = system: HL-60(TB) leukemia
# IGROV1 ovarian = system: IGROV1 ovarian
# K-562 leukemia = system: K-562 leukemia
# CAKI-1 renal = system: CAKI-1 renal
# RPMI-8226 leukemia = system: RPMI-8226 leukemia
smiles,measurement,setting,value
CC1(CO)COC(C)(C)OC1,TGI,UO-31 renal,> 100 µM
same,TGI,HCC-2998 colon,> 100 µM
same,TGI,MDA-N,> 100 µM
same,TGI,RXF 393 renal,> 100 µM
same,TGI,NCI-H522 lung,> 100 µM
same,TGI,U251 CNS,> 100 µM
same,TGI,MOLT-4 leukemia,> 100 µM
same,TGI,SK-OV-3 ovarian,> 100 µM
same,TGI,SR leukemia,> 100 µM
same,TGI,A498 renal,> 100 µM
same,TGI,MCF7 breast,> 100 µM
same,TGI,NCI-H460 lung,> 100 µM
same,TGI,SN12C renal,> 100 µM
same,TGI,HS 578T breast,> 100 µM
same,TGI,A549 NSCLC,> 100 µM
same,TGI,HCT-116 colon,> 100 µM
same,TGI,UACC-257 melanoma,> 100 µM
same,TGI,OVCAR-8 ovarian,> 100 µM
same,TGI,NCI-H23 lung,> 100 µM
same,TGI,KM12 colon,> 100 µM
same,TGI,TK-10 renal,> 100 µM
same,TGI,ACHN renal,> 100 µM
same,TGI,LOX IMVI melanoma,> 100 µM
same,TGI,T-47D breast,> 100 µM
same,TGI,SK-MEL-5 melanoma,> 100 µM
same,TGI,SF-295 CNS,> 100 µM
same,TGI,CCRF-CEM leukemia,> 100 µM
same,TGI,SNB-19 CNS,> 100 µM
same,TGI,PC-3 prostate,> 100 µM
same,TGI,MDA-MB-435,> 100 µM
same,TGI,OVCAR-4 ovarian,> 100 µM
same,TGI,HCT-15 colon,> 100 µM
same,TGI,HT29 colon,> 100 µM
same,TGI,DU-145 prostate,> 100 µM
same,TGI,NCI/ADR-RES ovarian,> 100 µM
same,TGI,SNB-75 CNS,> 100 µM
same,TGI,SF-268 CNS,> 100 µM
same,TGI,SK-MEL-28 melanoma,> 100 µM
same,TGI,HOP-92 NSCLC,> 100 µM
same,TGI,MDA-MB-231 breast,> 100 µM
same,TGI,NCI-H226 lung,> 100 µM
same,TGI,OVCAR-3 ovarian,> 100 µM
same,TGI,COLO 205 colon,> 100 µM
same,TGI,SW-620 colon,> 100 µM
CC12CP(=O)(c3ccccc3)CC1c1ccccc1C2c1ccccc1 (configuration not stated),TGI,UO-31 renal,30.4 µM
same,TGI,MALME-3M melanoma,30.3 µM
same,TGI,HCC-2998 colon,33.9 µM
same,TGI,MDA-N,33.6 µM
same,TGI,RXF 393 renal,46.6 µM
same,TGI,786-0 renal,32.8 µM
same,TGI,SF-539 CNS,34.1 µM
same,TGI,U251 CNS,36.7 µM
same,TGI,MOLT-4 leukemia,31 µM
same,TGI,SK-OV-3 ovarian,> 100 µM
same,TGI,SR leukemia,29.8 µM
same,TGI,A498 renal,> 100 µM
same,TGI,MCF7 breast,> 100 µM
same,TGI,OVCAR-5 ovarian,> 100 µM
same,TGI,NCI-H460 lung,27.6 µM
same,TGI,SN12C renal,32.2 µM
same,TGI,HS 578T breast,> 100 µM
same,TGI,HOP-62 NSCLC,35.4 µM
same,TGI,A549 NSCLC,36.2 µM
same,TGI,EKVX NSCLC,44.6 µM
same,TGI,HCT-116 colon,30.4 µM
same,TGI,OVCAR-8 ovarian,28.6 µM
same,TGI,NCI-H23 lung,41.8 µM
same,TGI,KM12 colon,33.6 µM
same,TGI,TK-10 renal,> 100 µM
same,TGI,M14 melanoma,31.8 µM
same,TGI,SK-MEL-2 melanoma,49.4 µM
same,TGI,ACHN renal,41.1 µM
same,TGI,UACC-62 melanoma,> 100 µM
same,TGI,T-47D breast,37.5 µM
same,TGI,HL-60(TB) leukemia,28.5 µM
same,TGI,SK-MEL-5 melanoma,55.1 µM
same,TGI,SF-295 CNS,29.8 µM
same,TGI,CCRF-CEM leukemia,23.5 µM
same,TGI,IGROV1 ovarian,46 µM
same,TGI,SNB-19 CNS,> 100 µM
same,TGI,PC-3 prostate,27.1 µM
same,TGI,MDA-MB-435,30.1 µM
same,TGI,K-562 leukemia,25.5 µM
same,TGI,HCT-15 colon,27.2 µM
same,TGI,HT29 colon,28.8 µM
same,TGI,DU-145 prostate,64 µM
same,TGI,NCI/ADR-RES ovarian,32.7 µM
same,TGI,SF-268 CNS,67 µM
same,TGI,SK-MEL-28 melanoma,75 µM
same,TGI,HOP-92 NSCLC,50 µM
same,TGI,MDA-MB-231 breast,40.1 µM
same,TGI,NCI-H226 lung,44.1 µM
same,TGI,OVCAR-3 ovarian,31.7 µM
same,TGI,SW-620 colon,33.2 µM
CCOC(=O)c1csc(NC(=O)CN(C)C)n1,TGI,UO-31 renal,> 100 µM
same,TGI,HCC-2998 colon,> 100 µM
same,TGI,MDA-N,> 100 µM
same,TGI,RXF 393 renal,> 100 µM
same,TGI,SF-539 CNS,> 100 µM
same,TGI,U251 CNS,> 100 µM
same,TGI,MOLT-4 leukemia,> 100 µM
same,TGI,SK-OV-3 ovarian,> 100 µM
same,TGI,CAKI-1 renal,> 100 µM
same,TGI,SR leukemia,> 100 µM
same,TGI,A498 renal,> 100 µM
same,TGI,RPMI-8226 leukemia,> 100 µM
same,TGI,MCF7 breast,> 100 µM
same,TGI,OVCAR-5 ovarian,> 100 µM
same,TGI,NCI-H460 lung,> 100 µM
same,TGI,HS 578T breast,> 100 µM
same,TGI,HOP-62 NSCLC,> 100 µM
same,TGI,A549 NSCLC,> 100 µM
same,TGI,EKVX NSCLC,> 100 µM
same,TGI,UACC-257 melanoma,> 100 µM
same,TGI,OVCAR-8 ovarian,> 100 µM
same,TGI,NCI-H23 lung,> 100 µM
same,TGI,KM12 colon,> 100 µM
same,TGI,TK-10 renal,> 100 µM
same,TGI,M14 melanoma,> 100 µM
same,TGI,SK-MEL-2 melanoma,> 100 µM
same,TGI,ACHN renal,> 100 µM
same,TGI,UACC-62 melanoma,> 100 µM
same,TGI,LOX IMVI melanoma,> 100 µM
same,TGI,T-47D breast,> 100 µM
same,TGI,HL-60(TB) leukemia,> 100 µM
same,TGI,SK-MEL-5 melanoma,> 100 µM
same,TGI,SF-295 CNS,> 100 µM
same,TGI,CCRF-CEM leukemia,> 100 µM
same,TGI,IGROV1 ovarian,> 100 µM
same,TGI,SNB-19 CNS,> 100 µM
same,TGI,PC-3 prostate,> 100 µM
same,TGI,MDA-MB-435,> 100 µM
same,TGI,OVCAR-4 ovarian,> 100 µM
same,TGI,K-562 leukemia,> 100 µM
same,TGI,HCT-15 colon,> 100 µM
same,TGI,HT29 colon,> 100 µM
same,TGI,DU-145 prostate,> 100 µM
same,TGI,NCI/ADR-RES ovarian,> 100 µM
same,TGI,SNB-75 CNS,> 100 µM
same,TGI,SF-268 CNS,> 100 µM
same,TGI,SK-MEL-28 melanoma,> 100 µM
same,TGI,HOP-92 NSCLC,> 100 µM
same,TGI,MDA-MB-231 breast,> 100 µM
same,TGI,NCI-H226 lung,> 100 µM
same,TGI,OVCAR-3 ovarian,> 100 µM
same,TGI,COLO 205 colon,> 100 µM
same,TGI,SW-620 colon,> 100 µM
